In patent US20230265151A1, “GIP/GLP1 CO-AGONIST COMPOUNDS” (priority 2020, published 2023):
Read-outs that look alike come from different tables or passages of the source.

How the values were obtained:
Format in all cases: cell-based
hGIPR = target: T1, hGIPR (Homo sapiens, UniProt P48546); experiment: Functional cAMP formation (HTRF) in HEK-293 clonal cells expressing hGIPR, 0.1% bovine casein, without or with 1.0% human serum albumin; conditions: for EC50: geometric mean
T1 construct: expressed in transfected cells
T1 sequence (P48546 22-466): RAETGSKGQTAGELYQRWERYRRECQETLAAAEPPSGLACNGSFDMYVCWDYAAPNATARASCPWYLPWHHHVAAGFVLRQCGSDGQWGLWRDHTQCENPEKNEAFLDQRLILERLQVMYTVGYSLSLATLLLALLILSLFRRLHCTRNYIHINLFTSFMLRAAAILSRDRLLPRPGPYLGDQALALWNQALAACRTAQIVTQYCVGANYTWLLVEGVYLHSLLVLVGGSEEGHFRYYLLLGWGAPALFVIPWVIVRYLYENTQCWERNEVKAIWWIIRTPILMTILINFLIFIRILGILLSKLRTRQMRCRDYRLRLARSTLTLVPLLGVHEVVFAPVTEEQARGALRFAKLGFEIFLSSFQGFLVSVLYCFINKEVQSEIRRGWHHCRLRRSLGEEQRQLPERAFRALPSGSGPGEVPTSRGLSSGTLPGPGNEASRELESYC
Procedure, shortened: (§1)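 Readings of the HTRF 665/620 nm ratio, which falls as cAMP rises, were converted to nM cAMP using a standard curve after 30 min peptide exposure at 37° C.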

hGCGR = target: T2, hGCGR (Homo sapiens, UniProt P47871); experiment: Functional cAMP formation (HTRF) in HEK-293 clonal cells expressing hGCGR, 0.1% bovine casein, without or with 1.0% human serum albumin; conditions: geometric mean
T2 construct: expressed in transfected cells
Procedure, shortened: as §1

hGLP-1R = hGLP-1R (Homo sapiens, UniProt P43220); experiment: Functional cAMP formation (HTRF) in HEK-293 clonal cells expressing hGLP-1R, 0.1% bovine casein, without or with 1.0% human serum albumin; design: expressed in transfected cells; conditions: for EC50: geometric mean
Procedure, shortened: as §1

[1] = cAMP, incubated at 37° C., 0.1% bovine casein (no human serum albumin), read-out: hGIPR EC50, nM (SEM, n)
[2] = cAMP, incubated at 37° C., 0.1% bovine casein (no human serum albumin), read-out: hGCGR EC50, nM (SEM, n)
[3] = cAMP, incubated at 37° C., 0.1% bovine casein (no human serum albumin), read-out: hGLP-1R EC50, nM (SEM, n)
[4] = HEK293, read-out: hGIPR Emax, % ± SEM, 0.1% bovine casein and 1.0% human serum albumin, 37° C., percent of maximal response to GIP(1-42)NH2
[5] = hGIPR EC50, nM (SEM, n), 0.1% bovine casein and 1.0% human serum albumin, 37° C.
[6] = hGIPR EC50, nM (SEM, n), cAMP, incubated at 37° C., 0.1% bovine casein (no human serum albumin)
[7] = hGCGR EC50, nM (SEM, n), 0.1% bovine casein and 1.0% human serum albumin, 37° C.
[8] = hGCGR EC50, nM (SEM, n), cAMP, incubated at 37° C., 0.1% bovine casein (no human serum albumin)
[9] = hGLP-1R EC50, nM (SEM, n), 0.1% bovine casein and 1.0% human serum albumin, 37° C.
[10] = hGLP-1R EC50, nM (SEM, n), cAMP, incubated at 37° C., 0.1% bovine casein (no human serum albumin)

hGLP-1R, sequence (P43220 24-463): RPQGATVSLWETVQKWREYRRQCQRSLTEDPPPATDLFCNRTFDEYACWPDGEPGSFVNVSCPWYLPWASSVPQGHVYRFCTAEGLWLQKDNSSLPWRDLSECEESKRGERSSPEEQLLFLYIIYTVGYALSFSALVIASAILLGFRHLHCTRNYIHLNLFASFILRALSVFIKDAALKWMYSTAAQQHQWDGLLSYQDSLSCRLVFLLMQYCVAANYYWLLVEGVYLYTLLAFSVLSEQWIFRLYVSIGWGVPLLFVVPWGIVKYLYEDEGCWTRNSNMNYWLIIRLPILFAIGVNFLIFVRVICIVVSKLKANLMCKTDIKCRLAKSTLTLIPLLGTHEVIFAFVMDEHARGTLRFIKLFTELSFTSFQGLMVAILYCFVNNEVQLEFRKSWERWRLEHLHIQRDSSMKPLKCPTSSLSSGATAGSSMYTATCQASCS
T2 sequence (P47871 26-477): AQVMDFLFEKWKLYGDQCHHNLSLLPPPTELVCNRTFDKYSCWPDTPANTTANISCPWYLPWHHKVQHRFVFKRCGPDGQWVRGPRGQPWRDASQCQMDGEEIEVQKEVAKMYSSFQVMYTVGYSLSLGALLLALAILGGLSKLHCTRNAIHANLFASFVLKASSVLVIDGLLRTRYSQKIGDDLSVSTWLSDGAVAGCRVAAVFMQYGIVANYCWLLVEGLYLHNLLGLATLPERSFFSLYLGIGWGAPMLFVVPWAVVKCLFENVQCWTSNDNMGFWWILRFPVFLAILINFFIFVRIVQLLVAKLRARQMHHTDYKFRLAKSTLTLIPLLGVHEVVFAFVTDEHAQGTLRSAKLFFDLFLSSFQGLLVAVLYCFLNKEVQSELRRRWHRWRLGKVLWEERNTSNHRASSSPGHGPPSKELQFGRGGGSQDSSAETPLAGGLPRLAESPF

For `CC[C@H](C)[C@H](NC(=O)[C@H](CC(C)C)NC(=O)[C@](C)(Cc1ccc(O)cc1)NC(=O)[C@@H](CCC(=O)O)NC(=O)[C@@H](NC(=O)[C@H](Cc1ccccc1)NC(=O)[C@H](CCCCNC(=O)COCCOCCNC(=O)COCCOCCNC(=O)COCCOCCNC(=O)CC[C@H](NC(=O)CCCCCCCCCCCCC(=O)O)C(=O)O)NC(=O)C(C)(C)NC(=O)[C@H](CCC(N)=O)NC(=O)[C@H](C)NC(=O)[C@H](CCCCNC(=O)COCCOCCNC(=O)COCCOCCNC(=O)COCCOCCNC(=O)CC[C@H](NC(=O)CCCCCCCCCCCCC(=O)O)C(=O)O)NC(=O)[C@H](CCCN)NC(=O)[C@H](CC(=O)O)NC(=O)[C@H](CC(C)C)NC(=O)[C@](C)(CC(C)C)NC(=O)[C@@H](NC(=O)[C@H](CO)NC(=O)[C@H](Cc1ccncc1)NC(=O)[C@H](CC(=O)O)NC(=O)[C@H](CO)NC(=O)[C@@H](NC(=O)[C@](C)(Cc1ccccc1F)NC(=O)[C@@H](NC(=O)CNC(=O)[C@H](CCC(=O)O)NC(=O)C(C)(C)NC(=O)[C@@H](N)Cc1ccc(O)cc1)[C@@H](C)O)[C@@H](C)O)[C@@H](C)CC)[C@@H](C)CC)C(=O)N[C@@H](CCC(=O)O)C(=O)NCC(=O)NCC(=O)N1CCC[C@H]1C(=O)N[C@@H](CO)C(=O)N[C@@H](CO)C(=O)NCC(=O)N[C@@H](C)C(=O)N1CCC[C@H]1C(=O)N1CCC[C@H]1C(=O)N1CCC[C@H]1C(=O)N[C@@H](CO)C(N)=O` [Example 77], the Emax (hGIPR; HEK293, percent of maximal response to GIP(1-42)NH2, 37° C., 0.1% bovine casein, arithmetic mean, read-out: hGIPR Emax, % ± SEM) was 94.8 ± 2.69%, the EC50 (hGIPR; [1]) was 0.0288 nM and the EC50 (hGCGR; [2]) was over 9950 nM. It also gave an Emax (hGLP-1R; HEK293, percent of maximal response to GLP-1(7-36)NH2, 37° C., 0.1% bovine casein, arithmetic mean, read-out: hGLP-1R Emax, % ± SEM) of 87 ± 1.71% and an EC50 (hGLP-1R; [3]) of 3.03 nM.
Compound `CC[C@H](C)[C@H](NC(=O)[C@H](CC(C)C)NC(=O)[C@](C)(Cc1ccc(O)cc1)NC(=O)[C@@H](CCC(=O)O)NC(=O)[C@@H](NC(=O)[C@H](Cc1ccccc1)NC(=O)[C@H](CCCCNC(=O)COCCOCCNC(=O)COCCOCCNC(=O)CCCCCCCCCCCCC(=O)O)NC(=O)C(C)(C)NC(=O)[C@H](CCC(N)=O)NC(=O)[C@H](C)NC(=O)[C@H](CCCCNC(=O)COCCOCCNC(=O)COCCOCCNC(=O)CCCCCCCCCCCCC(=O)O)NC(=O)[C@H](CCCN)NC(=O)[C@H](CC(=O)O)NC(=O)[C@H](CC(C)C)NC(=O)[C@](C)(CC(C)C)NC(=O)[C@@H](NC(=O)[C@H](CO)NC(=O)[C@H](Cc1ccncc1)NC(=O)[C@H](CC(=O)O)NC(=O)[C@H](CO)NC(=O)[C@@H](NC(=O)[C@](C)(Cc1ccccc1F)NC(=O)[C@@H](NC(=O)CNC(=O)[C@H](CCC(=O)O)NC(=O)C(C)(C)NC(=O)[C@@H](N)Cc1ccc(O)cc1)[C@@H](C)O)[C@@H](C)O)[C@@H](C)CC)[C@@H](C)CC)C(=O)N[C@@H](CCC(=O)O)C(=O)NCC(=O)NCC(=O)N1CCC[C@H]1C(=O)N[C@@H](CO)C(=O)N[C@@H](CO)C(=O)NCC(=O)N[C@@H](C)C(=O)N1CCC[C@H]1C(=O)N1CCC[C@H]1C(=O)N1CCC[C@H]1C(=O)N[C@@H](CO)C(N)=O` [Example 78] has an EC50 (hGIPR; 0.1% bovine casein and 1.0% human serum albumin, 37° C., read-out: hGIPR EC50, nM (SEM, n)) of 0.242 nM, an Emax (hGIPR; HEK293, 0.1% bovine casein and 1.0% human serum albumin, 37° C., percent of maximal response to GIP(1-42)NH2, read-out: hGIPR Emax, % ± SEM) of 89.7 ± 2.65% and an EC50 (hGIPR; [1]) of 0.0145 nM. It also gave an EC50 (hGCGR; 0.1% bovine casein and 1.0% human serum albumin, 37° C., read-out: hGCGR EC50, nM (SEM, n)) of over 9950 nM, an EC50 (hGCGR; [2]) of over 9950 nM and an EC50 (hGLP-1R; 0.1% bovine casein and 1.0% human serum albumin, 37° C., read-out: hGLP-1R EC50, nM (SEM, n)) of 4.29 nM. For the same compound, the EC50 (hGLP-1R; [3]) was 0.286 nM.
`CC[C@H](C)[C@H](NC(=O)[C@H](CC(C)C)NC(=O)[C@](C)(Cc1ccc(O)cc1)NC(=O)[C@H](CCCCNC(=O)COCCOCCNC(=O)CC[C@H](NC(=O)CCCCCCCCCCCCC(=O)O)C(=O)O)NC(=O)[C@@H](NC(=O)[C@H](Cc1ccccc1)NC(=O)[C@H](CCC(=O)O)NC(=O)C(C)(C)NC(=O)[C@H](CCC(N)=O)NC(=O)[C@H](C)NC(=O)[C@H](CCCCNC(=O)COCCOCCNC(=O)CC[C@H](NC(=O)CCCCCCCCCCCCC(=O)O)C(=O)O)NC(=O)[C@H](CCCN)NC(=O)[C@H](CC(=O)O)NC(=O)[C@H](CC(C)C)NC(=O)[C@](C)(CC(C)C)NC(=O)[C@@H](NC(=O)[C@H](CO)NC(=O)[C@H](Cc1ccncc1)NC(=O)[C@H](CC(=O)O)NC(=O)[C@H](CO)NC(=O)[C@@H](NC(=O)[C@](C)(Cc1ccccc1F)NC(=O)[C@@H](NC(=O)CNC(=O)[C@H](CCC(=O)O)NC(=O)C(C)(C)NC(=O)[C@@H](N)Cc1ccc(O)cc1)[C@@H](C)O)[C@@H](C)O)[C@@H](C)CC)[C@@H](C)CC)C(=O)N[C@@H](CCC(=O)O)C(=O)NCC(=O)NCC(=O)N1CCC[C@H]1C(=O)N[C@@H](CO)C(=O)N[C@@H](CO)C(=O)NCC(=O)N[C@@H](C)C(=O)N1CCC[C@H]1C(=O)N1CCC[C@H]1C(=O)N1CCC[C@H]1C(=O)N[C@@H](CO)C(N)=O` [Example 79] was tested, and the Emax (hGIPR; [4]) was 95%, the EC50 (hGIPR; [5]) was 2.31 nM and the EC50 (hGIPR; [6]) was 0.013 nM. It also gave an EC50 (hGCGR; [7]) of over 9950 nM, an EC50 (hGCGR; [8]) of over 9950 nM and an EC50 (hGLP-1R; [9]) of 15.1 nM. For the same compound, the EC50 (hGLP-1R; [10]) was 0.223 nM.
`CC[C@H](C)[C@H](NC(=O)[C@H](CC(C)C)NC(=O)[C@](C)(Cc1ccc(O)cc1)NC(=O)[C@H](CCCCNC(=O)COCCOCCNC(=O)COCCOCCNC(=O)CCCCCCCCCCCCC(=O)O)NC(=O)[C@@H](NC(=O)[C@H](Cc1ccccc1)NC(=O)[C@H](CCC(=O)O)NC(=O)C(C)(C)NC(=O)[C@H](CCC(N)=O)NC(=O)[C@H](C)NC(=O)[C@H](CCCCNC(=O)COCCOCCNC(=O)COCCOCCNC(=O)CCCCCCCCCCCCC(=O)O)NC(=O)[C@H](CCCN)NC(=O)[C@H](CC(=O)O)NC(=O)[C@H](CC(C)C)NC(=O)[C@](C)(CC(C)C)NC(=O)[C@@H](NC(=O)[C@H](CO)NC(=O)[C@H](Cc1ccncc1)NC(=O)[C@H](CC(=O)O)NC(=O)[C@H](CO)NC(=O)[C@@H](NC(=O)[C@](C)(Cc1ccccc1F)NC(=O)[C@@H](NC(=O)CNC(=O)[C@H](CCC(=O)O)NC(=O)C(C)(C)NC(=O)[C@@H](N)Cc1ccc(O)cc1)[C@@H](C)O)[C@@H](C)O)[C@@H](C)CC)[C@@H](C)CC)C(=O)N[C@@H](CCC(=O)O)C(=O)NCC(=O)NCC(=O)N1CCC[C@H]1C(=O)N[C@@H](CO)C(=O)N[C@@H](CO)C(=O)NCC(=O)N[C@@H](C)C(=O)N1CCC[C@H]1C(=O)N1CCC[C@H]1C(=O)N1CCC[C@H]1C(=O)N[C@@H](CO)C(N)=O` [Example 81] gave an Emax (hGIPR; [4]) of 97.4%, an EC50 (hGIPR; [5]) of 0.531 nM and an EC50 (hGIPR; [6]) of 0.0114 nM. The EC50 (hGCGR; [7]) was over 9950 nM, the EC50 (hGCGR; [8]) was over 9950 nM and the EC50 (hGLP-1R; [9]) was 3.47 nM. For the same compound, the EC50 (hGLP-1R; [10]) was 0.176 nM.
With `CC[C@H](C)[C@H](NC(=O)[C@H](CC(C)C)NC(=O)[C@](C)(Cc1ccc(O)cc1)NC(=O)[C@H](CCCCNC(=O)COCCOCCNC(=O)COCCOCCNC(=O)CC[C@H](NC(=O)CCCCCCCCCCCCC(=O)O)C(=O)O)NC(=O)[C@@H](NC(=O)[C@](C)(Cc1ccccc1)NC(=O)[C@H](CCC(=O)O)NC(=O)C(C)(C)NC(=O)[C@H](CCC(N)=O)NC(=O)[C@H](C)NC(=O)[C@H](CCCCNC(=O)COCCOCCNC(=O)COCCOCCNC(=O)CC[C@H](NC(=O)CCCCCCCCCCCCC(=O)O)C(=O)O)NC(=O)[C@H](CCCN)NC(=O)[C@H](CC(=O)O)NC(=O)[C@H](CC(C)C)NC(=O)[C@](C)(CC(C)C)NC(=O)[C@@H](NC(=O)[C@H](CO)NC(=O)[C@H](Cc1ccncc1)NC(=O)[C@H](CC(=O)O)NC(=O)[C@H](CO)NC(=O)[C@@H](NC(=O)[C@](C)(Cc1ccccc1F)NC(=O)[C@@H](NC(=O)CNC(=O)[C@H](CCC(=O)O)NC(=O)C(C)(C)NC(=O)[C@@H](N)Cc1ccc(O)cc1)[C@@H](C)O)[C@@H](C)O)[C@@H](C)CC)[C@@H](C)CC)C(=O)N[C@@H](CCC(=O)O)C(=O)NCC(=O)NCC(=O)N1CCC[C@H]1C(=O)N[C@@H](CO)C(=O)N[C@@H](CO)C(=O)NCC(=O)N[C@@H](C)C(=O)N1CCC[C@H]1C(=O)N1CCC[C@H]1C(=O)N1CCC[C@H]1C(=O)N[C@@H](CO)C(N)=O` [Example 82] the Emax (hGIPR; HEK293, read-out: hGIPR Emax, % ± SEM, percent of maximal response to GIP(1-42)NH2, 37° C., 0.1% bovine casein, arithmetic mean) was 81.4 ± 6.09%, the EC50 (hGIPR; [6]) was 0.0206 nM and the EC50 (hGCGR; [8]) was over 9950 nM. It also gave an EC50 (hGLP-1R; [10]) of 4.78 nM.
